Converted amounts (≈) assume the structure as drawn. Where two headings read alike, the source gives them in different places.
Columns and labels:
Experiment in all cases: MIC by agar plate dilution method
Assay type in all cases: cell-based
P. aeruginosa AKR17 = conditions: Pseudomonas aeruginosa, AKR17, P. aeruginosa AKR17; 10^6 CFU/ml; read-out: Minimum Inhibitory Concentration
Protocol: (§1) The minimum inhibitory concentrations (MIC: μg/ml) of the compounds of the present invention against various microorganisms were measured by an agar plate dilution method (inoculum size: 10^6 CFU/ml) by using Sensitivity Disk Agar (Nissui) in comparison with Cefotaxime and Ceftazidime as comparative compounds.
(§2) Minimum Inhibitory Concentration (μg/ml; 10^6 CFU/ml)

E. coli W3630/Rms212 = conditions: Escherichia coli, W3630/RMS212, read-out: Minimum Inhibitory Concentration, E. coli W3630/Rms212; 10^6 CFU/ml
Protocol: as §1, §2

E. coli NIHJJC-2 = conditions: Escherichia coli, NIHJJC2, E. coli NIHJJC-2; 10^6 CFU/ml; read-out: Minimum Inhibitory Concentration
Protocol: as §1, §2

E. coli ML1410/Rte16 = conditions: Escherichia coli, ML1410/RTE16, read-out: Minimum Inhibitory Concentration, E. coli ML1410/Rte16; 10^6 CFU/ml
Protocol: as §1, §2

P. aeruginosa AK109 = conditions: Pseudomonas aeruginosa, AK109, P. aeruginosa AK109; 10^6 CFU/ml; read-out: Minimum Inhibitory Concentration
Protocol: as §1, §2

A. calcoaceticus No. 14 = conditions: Acinetobacter calcoaceticus, NO.14, A. calcoaceticus No. 14; 10^6 CFU/ml; read-out: Minimum Inhibitory Concentration
Protocol: as §1, §2

P. cepacia 23 = conditions: Burkholderia cepacia; P. cepacia 23; 10^6 CFU/ml; read-out: Minimum Inhibitory Concentration
Protocol: as §1, §2

E. coli W3630/Rms213 = conditions: Escherichia coli, W3630/RMS213, read-out: Minimum Inhibitory Concentration, E. coli W3630/Rms213; 10^6 CFU/ml
Protocol: as §1, §2

P. maltophilia IID 1275 = conditions: Stenotrophomonas maltophilia, IID1275; P. maltophilia IID 1275; 10^6 CFU/ml; read-out: Minimum Inhibitory Concentration
Protocol: as §1, §2

S. aureus NIHJJC-1 = conditions: Staphylococcus aureus, NIHJJC1, S. aureus NIHJJC-1; 10^6 CFU/ml; read-out: Minimum Inhibitory Concentration
Protocol: as §1, §2

P. vulgaris No. 33 = conditions: Proteus vulgaris; P. vulgaris No. 33; 10^6 CFU/ml; read-out: Minimum Inhibitory Concentration
Protocol: as §1, §2

S. aureus JS-1 = conditions: Staphylococcus aureus, JS1; S. aureus JS-1; 10^6 CFU/ml; read-out: Minimum Inhibitory Concentration
Protocol: as §1, §2

P. vulgaris OB1043 = conditions: Proteus vulgaris
Protocol: as §1, §2

C. freundii No. 7 = conditions: Citrobacter freundii; C. freundii No. 7; 10^6 CFU/ml; read-out: Minimum Inhibitory Concentration
Protocol: as §1, §2

E. coli CSH = conditions: Escherichia coli, 10^6 CFU/ml, read-out: Minimum Inhibitory Concentration
Protocol: as §1, §2

K. pneumoniae No. 42 = conditions: Klebsiella pneumoniae
Protocol: as §1, §2

P. mirabilis JY10 = conditions: Proteus mirabilis
Protocol: as §1, §2

E. cloaceae Nek 39 = conditions: E. cloaceae Nek 39; 10^6 CFU/ml; read-out: Minimum Inhibitory Concentration
Protocol: as §1, §2

S. marcescens No. 16-2 = conditions: Serratia marcescens, NO.162; S. marcescens No. 16-2; 10^6 CFU/ml; read-out: Minimum Inhibitory Concentration
Protocol: as §1, §2

E. coli CSH2 = conditions: Escherichia coli, 10^6 CFU/ml, read-out: Minimum Inhibitory Concentration
Protocol: as §1, §2

E. coli C/Rms149 = conditions: Escherichia coli, read-out: Minimum Inhibitory Concentration, E. coli C/Rms149; 10^6 CFU/ml
Protocol: as §1, §2

[1] = K. pneumoniae No. 42, 10^6 CFU/ml, read-out: Minimum Inhibitory Concentration
[2] = P. mirabilis JY10, 10^6 CFU/ml, read-out: Minimum Inhibitory Concentration
[3] = OB1043, P. vulgaris OB1043, 10^6 CFU/ml, read-out: Minimum Inhibitory Concentration

## CO/N=C(\C(=O)NC1C(=O)N2C(C(=O)[O-])=C(C[N+]3(C)CCc4cc(O)ccc4C3)CSC12)c1csc(N)n1 (stereo not drawn) [Ex. 10, 7-[(Z)-2-(2-aminothiazol-4-yl)-2-methoxyiminoacetamido]-3-(6-hydroxy-2-methyl-1,2,3,4-tetrahydro-2-isoquinolinium)methyl-3-cephem-4-carboxylate]
P. aeruginosa AKR17
  MIC: > 25 µg/mL
E. coli W3630/Rms212
  MIC: 0.2 µg/mL (≈ 0.358 µM)
E. coli NIHJJC-2
  MIC: 0.1 µg/mL (≈ 0.179 µM)
E. coli ML1410/Rte16
  MIC: 0.1 µg/mL (≈ 0.179 µM)
P. aeruginosa AK109
  MIC: 1.56 µg/mL (≈ 2.79 µM)
A. calcoaceticus No. 14
  MIC: 25 µg/mL (≈ 44.8 µM)
P. cepacia 23
  MIC: 6.25 µg/mL (≈ 11.2 µM)
E. coli W3630/Rms213
  MIC: 1.56 µg/mL (≈ 2.79 µM)
P. maltophilia IID 1275
  MIC: > 25 µg/mL
S. aureus NIHJJC-1
  MIC: 0.39 µg/mL (≈ 0.698 µM)
P. vulgaris No. 33
  MIC: 0.1 µg/mL (≈ 0.179 µM)
S. aureus JS-1
  MIC: 6.25 µg/mL (≈ 11.2 µM)
P. vulgaris OB1043; OB1043, read-out: Minimum Inhibitory Concentration
  MIC: 0.39 µg/mL (≈ 0.698 µM)
C. freundii No. 7
  MIC: 1.56 µg/mL (≈ 2.79 µM)
E. coli CSH
  MIC: 0.78 µg/mL (≈ 1.4 µM)
K. pneumoniae No. 42; [1]
  MIC: 0.2 µg/mL (≈ 0.358 µM)
P. mirabilis JY10; [2]
  MIC: 0.78 µg/mL (≈ 1.4 µM)
E. cloaceae Nek 39
  MIC: 0.78 µg/mL (≈ 1.4 µM)
S. marcescens No. 16-2
  MIC: 6.25 µg/mL (≈ 11.2 µM)
E. coli CSH2
  MIC: ≤ 0.05 µg/mL
E. coli C/Rms149
  MIC: 0.1 µg/mL (≈ 0.179 µM)

## CON=C(C(=O)NC1C(=O)N2C(C(=O)[O-])=C(C[N+]3(C)CCc4c(ccc(O)c4O)C3)CSC12)c1csc(N)n1 (stereo not drawn) [Ex. 11, 7-[(Z)-2-(2-aminothiazol-4-yl)-2-methoxyiminoacetamido]-3-(5,6-dihydroxy-2-methyl-1,2,3,4-tetrahydro-2-isoquinolinium)methyl-3-cephem-4-carboxylate]
P. aeruginosa AKR17
  MIC: 6.25 µg/mL (≈ 10.9 µM)
E. coli W3630/Rms212
  MIC: 0.025 µg/mL (≈ 0.0435 µM)
E. coli NIHJJC-2
  MIC: 0.05 µg/mL (≈ 0.087 µM)
E. coli ML1410/Rte16
  MIC: 0.1 µg/mL (≈ 0.174 µM)
P. aeruginosa AK109
  MIC: 0.2 µg/mL (≈ 0.348 µM)
A. calcoaceticus No. 14
  MIC: 0.39 µg/mL (≈ 0.679 µM)
P. cepacia 23
  MIC: 0.2 µg/mL (≈ 0.348 µM)
E. coli W3630/Rms213
  MIC: 0.78 µg/mL (≈ 1.36 µM)
P. maltophilia IID 1275
  MIC: > 50 µg/mL
S. aureus NIHJJC-1
  MIC: 6.25 µg/mL (≈ 10.9 µM)
P. vulgaris No. 33
  MIC: 0.2 µg/mL (≈ 0.348 µM)
S. aureus JS-1
  MIC: 25 µg/mL (≈ 43.5 µM)
P. vulgaris OB1043; [3]
  MIC: 1.56 µg/mL (≈ 2.71 µM)
C. freundii No. 7
  MIC: 12.5 µg/mL (≈ 21.8 µM)
E. coli CSH
  MIC: 0.78 µg/mL (≈ 1.36 µM)
K. pneumoniae No. 42; NO.42, read-out: Minimum Inhibitory Concentration
  MIC: 0.39 µg/mL (≈ 0.679 µM)
P. mirabilis JY10; JY10, read-out: Minimum Inhibitory Concentration
  MIC: 0.39 µg/mL (≈ 0.679 µM)
E. cloaceae Nek 39
  MIC: 0.025 µg/mL (≈ 0.0435 µM)
S. marcescens No. 16-2
  MIC: 12.5 µg/mL (≈ 21.8 µM)
E. coli CSH2
  MIC: 0.39 µg/mL (≈ 0.679 µM)
E. coli C/Rms149
  MIC: 0.1 µg/mL (≈ 0.174 µM)

## CON=C(C(=O)NC1C(=O)N2C(C(=O)[O-])=C(C[N+]3(C)CCc4cc(O)c(O)c(O)c4C3)CSC12)c1csc(N)n1 (stereo not drawn) [Ex. 12, 7-[(Z)-2-(2-aminothiazol-4-yl)-2-methoxyiminoacetamido]-3-(2-methyl-1,2,3,4-tetrahydro-6,7,8-trihydroxy-2-isoquinolinium)methyl-3-cephem-4-carboxylate]
P. aeruginosa AKR17
  MIC: 50 µg/mL (≈ 84.7 µM)
E. coli W3630/Rms212
  MIC: 0.78 µg/mL (≈ 1.32 µM)
E. coli NIHJJC-2
  MIC: 0.78 µg/mL (≈ 1.32 µM)
E. coli ML1410/Rte16
  MIC: 1.56 µg/mL (≈ 2.64 µM)
P. aeruginosa AK109
  MIC: 25 µg/mL (≈ 42.3 µM)
A. calcoaceticus No. 14
  MIC: 25 µg/mL (≈ 42.3 µM)
P. cepacia 23
  MIC: 1.56 µg/mL (≈ 2.64 µM)
E. coli W3630/Rms213
  MIC: 3.12 µg/mL (≈ 5.28 µM)
P. maltophilia IID 1275
  MIC: 100 µg/mL (≈ 169 µM)
S. aureus NIHJJC-1
  MIC: 25 µg/mL (≈ 42.3 µM)
P. vulgaris No. 33
  MIC: 1.56 µg/mL (≈ 2.64 µM)
S. aureus JS-1
  MIC: 50 µg/mL (≈ 84.7 µM)
P. vulgaris OB1043; [3]
  MIC: 3.12 µg/mL (≈ 5.28 µM)
C. freundii No. 7
  MIC: 12.5 µg/mL (≈ 21.2 µM)
E. coli CSH
  MIC: 3.12 µg/mL (≈ 5.28 µM)
K. pneumoniae No. 42; [1]
  MIC: 1.56 µg/mL (≈ 2.64 µM)
P. mirabilis JY10; [2]
  MIC: 0.78 µg/mL (≈ 1.32 µM)
E. cloaceae Nek 39
  MIC: 1.56 µg/mL (≈ 2.64 µM)
S. marcescens No. 16-2
  MIC: 100 µg/mL (≈ 169 µM)
E. coli CSH2
  MIC: 1.56 µg/mL (≈ 2.64 µM)
E. coli C/Rms149
  MIC: 0.78 µg/mL (≈ 1.32 µM)
